Experimental findings from patent US7902373B2 (Pfizer Inc, priority 2006, dated 2011) are described below.

The experiment concerns the target human recombinant H-PGDS (Homo sapiens, UniProt O60760). As to the kind of experiment: Fluorescence intensity h-PGDS TBA enzyme assay. The class given is biochemical. As to conditions: Examples up to 622 (and 3a, 3b).

human recombinant H-PGDS, sequence (O60760 whole entry): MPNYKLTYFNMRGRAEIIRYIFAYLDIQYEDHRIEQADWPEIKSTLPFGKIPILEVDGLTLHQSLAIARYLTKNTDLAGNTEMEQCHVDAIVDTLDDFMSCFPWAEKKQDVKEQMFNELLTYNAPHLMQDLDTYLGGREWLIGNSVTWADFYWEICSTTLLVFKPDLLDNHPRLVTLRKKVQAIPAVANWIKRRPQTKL

The IC50 is the concentration that inhibits the measured activity by half. Turning to `Cc1nc[nH]c1CN1CCC(NC(=O)c2ccc(-c3cccc(F)c3)nc2)CC1` [Example 296, 6-(3-Fluorophenyl)-N-{1-[(4-methyl-1H-imidazol-5-yl)methyl]piperidin-4-yl}nicotinamide], the IC50 was found to be 1.4 nM.

As for `Cc1nc(CN2CCC(NC(=O)c3ccc(-c4cccc(F)c4)nc3)CC2)c[nH]1` [Example 266, 6-(3-Fluorophenyl)-N-{1-[(2-methyl-1H-imidazol-4-yl)methyl]piperidin-4-yl}nicotinamide], the IC50 stood at 2.15 nM.

In the case of `O=C(NC1CCN(CC2=C(Cl)c3cc(F)ccc3OC2)CC1)c1ccc(-c2cccc(F)c2)nc1` [Example 309, N-(1-[(4-Chloro-6-fluoro-2H-chromen-3-yl)methyl]piperidin-4-yl)-6-(3-fluorophenyl)nicotinamide], the 50% inhibitory concentration (IC50) worked out at 4.32 nM.

`Cc1nc2ccccc2nc1CN1CCC(NC(=O)c2ccc(-c3cccc(F)c3)nc2)CC1` [Example 262, 6-(3-Fluorophenyl)-N-{1-[(3-methylquinoxalin-2-yl)methyl]piperidin-4-yl}nicotinamide]: the IC50 came to 3.86 nM.

Regarding `O=C(NC1CCN(c2ncc3cccnc3n2)CC1)c1ccc(-c2cccc(F)c2)nc1` [Example 171, 6-(3-Fluorophenyl)-N-(1-pyrido[2,3-d]pyrimidin-2-ylpiperidin-4-yl)nicotinamide], the IC50 stood at 1.41 nM.

Consider `CC(C)(C)C(=O)N1C[C@@H](O)[C@H](NC(=O)c2ccc(-c3cccc(F)c3)nc2)C1` (relative stereo) [Example 612, Trans-N-[1-(2,2-dimethylpropanoyl)-4-hydroxypyrrolidin-3-yl]-6-(3-fluorophenyl)nicotinamide], for which the IC50 was 12 nM.

For `COc1cccc(OC)c1C(C)N1CCC(NC(=O)c2ccc(-c3cccc(F)c3)nc2)CC1` (stereo not shown) [Example 533, N-{1-[1-(2,6-Dimethoxyphenyl)ethyl]piperidin-4-yl}-6-(3-fluorophenyl)nicotinamide], the IC50 is 2.42 nM.

Consider `N#Cc1cccc(CN2CCC(NC(=O)c3ccc(-c4cccc(F)c4)nc3)CC2)c1` [Example 238, N-[1-(3-Cyanobenzyl)piperidin-4-yl]-6-(3-fluorophenyl)nicotinamide], for which the IC50 was 0.135 nM.

On to `Cc1ccc(-c2c(CN3CCC(NC(=O)c4ccc(-c5cccc(F)c5)nc4)CC3)cnn2C)cc1` [Example 510, 6-(3-Fluorophenyl)-N-(1-{[1-methyl-5-(4-methylphenyl)-1H-pyrazol-4-yl]methyl}piperidin-4-yl)nicotinamide], for which the IC50 amounted to 2.74 nM.

Consider `O=C(NC1CCN(Cc2cccc3nsnc23)CC1)c1ccc(-c2cccc(F)c2)nc1` [Example 371, N-[1-(2,1,3-Benzothiadiazol-4-ylmethyl)piperidin-4-yl]-6-(3-fluorophenyl)nicotinamide], for which the IC50 worked out at 0.438 nM.

For the molecule `O=C(NC1CCN(c2ccc(C(=O)N3CCCC3)cn2)CC1)c1ccc(-c2cccc(F)c2)nc1` [Example 114, 6-(3-Fluorophenyl)-N-{1-[5-(pyrrolidin-1-ylcarbonyl)pyridin-2-yl]piperidin-4-yl}nicotinamide], the 50% inhibitory concentration (IC50) came to 2.3 nM.

Consider `Cn1nnnc1N1CCC(NC(=O)c2ccc(-c3cccc(F)c3)nc2)CC1` [Example 51, 6-(3-Fluoro-phenyl)-N-[1-(1-methyl-1H-tetrazol-5-yl)-piperidin-4-yl]-nicotinamide], for which the IC50 came to 0.266 nM.

For the molecule `O=C(NC1CCN(Cc2cc(F)c(F)c(F)c2)CC1)c1ccc(-c2cccc(F)c2)nc1` [Example 332, 6-(3-fluorophenyl)-N-[1-(345-trifluorobenzyl)piperidin-4-yl]nicotinamide], the IC50 was 1.19 nM.

For the molecule `O=C(NC1CCN(c2ccc(C(=O)NCCN3CCNC3=O)nn2)CC1)c1ccc(-c2cccc(F)c2)nc1` [Example 164, 6-[4-({[6-(3-Fluorophenyl)pyridin-3-yl]carbonyl}amino)piperidin-1-yl]-N-[2-(2-oxoimidazolidin-1-yl)ethyl]pyridazine-3-carboxamide], the IC50 amounted to 0.422 nM.

For the molecule `CCOC(=O)c1cn2c(CN3CCC(NC(=O)c4ccc(-c5cccc(F)c5)nc4)CC3)cccc2n1` [Example 379, Ethyl 5-{[4-({[6-(3-fluorophenyl)pyridin-3-yl]carbonyl}amino)piperidin-1-yl]methyl}imidazo[1,2-a]pyridine-2-carboxylate], the IC50 turned out to be 1.43 nM.

In the case of `CC(c1ccccc1)N1CCC(NC(=O)c2ccc(-c3cccc(F)c3)nc2)CC1` (stereo not shown) [Example 531, 6-(3-Fluorophenyl)-N-[1-(1-phenylethyl)piperidin-4-yl]nicotinamide], the IC50 was determined as 1.15 nM.

In the case of `COc1cccc(C(C)N2CCC(NC(=O)c3ccc(-c4cccc(F)c4)nc3)CC2)c1` (stereo not shown) [Example 532, 6-(3-Fluorophenyl)-N-{1-[1-(3-methoxyphenyl)ethyl]piperidin-4-yl}nicotinamide], the IC50 worked out at 1.3 nM.

As to `O=C(NC1CCN(Cc2c[nH]c3c(F)c(F)c(F)c(F)c23)CC1)c1ccc(-c2cccc(F)c2)nc1` [Example 349, 6-(3-Fluorophenyl)-N-{1-[(4,5,6,7-tetrafluoro-1H-indol-3-yl)methyl]piperidin-4-yl}nicotinamide], the IC50 worked out at 2.96 nM.

For `O=C(NC1CCN(c2ncnc3c2ncn3C2CC2)CC1)c1ccc(-c2cccc(F)c2)nc1` [Example 115, N-[1-(9-Cyclopropyl-9H-purin-6-yl)piperidin-4-yl]-6-(3-fluorophenyl)nicotinamide], the IC50 amounted to 0.241 nM.

On to `O=C(NC1CCN(c2nnnn2-c2ccc3c(c2)CCC3)CC1)c1ccc(-c2cccc(F)c2)nc1` [Example 92, N-{1-[1-(2,3-Dihydro-1H-inden-5-yl)-1H-tetrazol 5-yl]piperidin-4-yl}-6-(3-fluorophenyl)nicotinamide], for which the IC50 came to 5.15 nM.

On to `COc1ccc2oc(N3CCC(NC(=O)c4ccc(-c5cccc(F)c5)nc4)CC3)nc2c1` [Example 91, 6-(3-Fluorophenyl)-N-[1-(5-methoxy-13-benzoxazol-2-yl)piperidin-4-yl]nicotinamide], for which the IC50 amounted to 0.603 nM.

Take `Cc1cccc(-n2ccnc2CN2CCC(NC(=O)c3ccc(-c4cccc(F)c4)nc3)CC2)c1` [Example 435, 6-(3-Fluorophenyl)-N-(1-{[1-(3-methylphenyl)-1H-imidazol-2-yl]methyl}piperidin-4-yl)nicotinamide]: the IC50 was found to be 0.908 nM.

Turning to `CCOc1ccc(CN2CCC(NC(=O)c3ccc(-c4cccc(F)c4)nc3)CC2)cc1OC` [Example 253, N-[1-(4-Ethoxy-3-methoxybenzyl)piperidin-4-yl]-6-(3-fluorophenyl)nicotinamide], the concentration for half-maximal inhibition (IC50) is 1.45 nM.

As for `COc1ccc(CN2CCC(NC(=O)c3ccc(-c4cccc(F)c4)nc3)CC2)cc1` [Example 222, 6-(3-Fluorophenyl)-N-[1-(4-methoxybenzyl)piperidin-4-yl]nicotinamide], the IC50 was determined as 6.64 nM.

For `O=C(NC1CCN(Cc2ccnn2CCc2ccccc2)CC1)c1ccc(-c2cccc(F)c2)nc1` [Example 395, 6-(3-Fluorophenyl)-N-(1-{[1-(2-phenylethyl)-1H-pyrazol-5-yl]methyl}piperidin-4-yl)nicotinamide], the IC50 stood at 1.43 nM.

With `Cc1ccc(-c2n[nH]cc2CN2CCC(NC(=O)c3ccc(-c4cccc(F)c4)nc3)CC2)cc1` [Example 307, 6-(3-Fluorophenyl)-N-(1-{[3-(4-methylphenyl)-1H-pyrazol-4-yl]methyl}piperidin-4-yl)nicotinamide], the IC50 is 0.784 nM.

Take `CCc1cnc(CC)c(N2CCC(NC(=O)c3ccc(-c4cccc(F)c4)nc3)CC2)n1` [Example 169, N-[1-(3,6-Diethylpyrazin-2-yl)piperidin-4-yl]-6-(3-fluorophenyl)nicotinamide]: the IC50 worked out at 23.2 nM.

Turning to `CC(C)(C)OC(=O)NCCCN1CCC(NC(=O)c2ccc(-c3cccc(F)c3)nc2)CC1` [Example 281, tert-Butyl {3-[4-({[6-(3-fluorophenyl)pyridin-3-yl]carbonyl}amino)piperidin-1-yl]propyl}carbamate], the IC50 is 1.8 nM.

`O=C(NC1CCN(Cc2nc3ccccn3c2Br)CC1)c1ccc(-c2cccc(F)c2)nc1` [Example 414, N-{1-[(3-Bromoimidazo[1,2-a]pyridin-2-yl)methyl]piperidin-4-yl}-6-(3-fluorophenyl)nicotinamide]: the IC50 came to 0.35 nM.

In the case of `O=C(NC1CCN(Cc2ccnc(N3CCOCC3)n2)CC1)c1ccc(-c2cccc(F)c2)nc1` [Example 397, 6-(3-Fluorophenyl)-N-{1-[(2-morpholin-4-ylpyrimidin-4-yl)methyl]piperidin-4-yl}nicotinamide], the IC50 was determined as 1.47 nM.

On to `CN(C)CCCOc1ccc(CN2CCC(NC(=O)c3ccc(-c4cccc(F)c4)nc3)CC2)cc1` [Example 214, N-(1-{4-[3-(Dimethylamino)propoxy]benzyl}piperidin-4-yl)-6-(3-fluorophenyl)nicotinamide], for which the IC50 was 5.55 nM.

As for `O=C(NC1CCN(Cc2ncc[nH]2)CC1)c1ccc(-c2cccc(F)c2)nc1` [Example 300, 6-(3-Fluorophenyl)-N-[1-(1H-imidazol-2-ylmethyl)piperidin-4-yl]nicotinamide], the IC50 stood at 0.362 nM.

Take `CCc1ncc(CN2CCC(NC(=O)c3ccc(-c4cccc(F)c4)nc3)CC2)[nH]1` [Example 208, N-{1-[(2-Ethyl-1H-imidazol-5-yl)methyl]piperidin-4-yl}-6-(3-fluorophenyl)nicotinamide]: the IC50 was determined as 5.98 nM.

Regarding `O=C(NC1CCN(C2CCC(O)(c3cncnc3)CC2)CC1)c1ccc(-c2cccc(F)c2)nc1` (stereo not shown) [Example 554, 6-(3-Fluorophenyl)-N-[1-(4-hydroxy-4-pyrimidin-5-ylcyclohexyl)piperidin-4-yl]nicotinamide], the half-inhibitory concentration (IC50) was 1.72 nM.

With `O=C(NC1CCN(c2ncc3c(n2)CCOC3)C1)c1ccc(-c2cccc(F)c2)nc1` (stereo not shown) [Example 590, N-[1-(7,8-Dihydro-5H-pyrano[43-d]pyrimidin-2-yl)pyrrolidin-3-yl]-6-(3-fluorophenyl)nicotinamide], the IC50 amounted to 0.74 nM.

With `O=C(NC1CCN(Cc2cc(F)cc(F)c2F)CC1)c1ccc(-c2cccc(F)c2)nc1` [Example 331, 6-(3-Fluorophenyl)-N-[1-(2,3,5-trifluorobenzyl)piperidin-4-yl]nicotinamide], the 50% inhibitory concentration (IC50) turned out to be 2.71 nM.

In the case of `N#Cc1nccnc1N1CCC(NC(=O)c2ccc(-c3cccc(F)c3)nc2)CC1` [Example 142, N-[1-(3-Cyanopyrazin-2-yl)piperidin-4-yl]-6-(3-fluorophenyl)nicotinamide], the IC50 worked out at 0.33 nM.
